Patent US20210355105A1, “REGULATOR OF NITROGEN-CONTAINING HETEROAROMATIC DERIVATIVES, PREPARATION METHOD THEREFOR AND USE THEREOF” (Jiangsu Hansoh Pharmaceutical Group Co., Ltd., priority 2018, published 2021)

Tests used:
[1] = Pharmacokinetics assay in MiaPaca 2 tumor-bearing mice (plasma, tumor tissue, intestine); type: in vivo; details: female, mouse, oral 6 mg/kg
Protocol: MiaPaca 2 tumor-bearing mice were used as test animals.
Twenty-four female MiaPaca 2 tumor-bearing mice were used. Three mice were used for each time point (0 hour, 1 hour, 2 hours, 4 hours, 6 hours, 8 hours, 16 hours and 24 hours). The mice were purchased from Shanghai Sippr-BK laboratory animal Co. Ltd., with Certificate No.: SCXK (Shanghai) 2018-0006.
The solution was shaked well, and subjected to ultrasound for 15 minutes to obtain a uniform suspension with a concentration of 0.6 mg/mL.
After fast, MiaPaca 2 tumor-bearing mice were administered orally (p.o.) with the test compound according to body weight at an administration dose of 6 mg/kg and an administration volume of 10 mL/kg (the animals were not administered with the test compound on 0 hour).
The mice were euthanized by CO2 before administration and after administration, and 0.5 mL of blood was taken from heart. The blood samples were stored in EDTA-2K tubes, and centrifuged for 6 minutes at 6000 rpm, at 4° C. to separate the blood plasma. The plasma samples were stored at −80° C. The tumor tissue was weighed, placed in a 2 mL centrifuge tube, and stored at −80° C. An appropriate length of duodenum, ileum and colon tissues were taken and cut open with scissors, and the contents were removed. The above tissues were washed with PBS twice, and the moisture was absorbed with absorbent paper. The tissues were weighed, placed in a 2 mL centrifuge tube, and stored at −80° C.

[2] = Pharmacokinetics assay in mice, single intravenous injection; type: in vivo; details: male Balb/c mice
Protocol: (§1) Balb/c mice were used as test animals.
(§2) The solution was subjected to ultrasound to obtain a clear solution. The solution was filtered with a 0.22 μm water filter, and the filtrate was the formulation for intravenous administration (i.v.). The concentration was 0.2 mg/mL.
After an overnight fast, male Balb/c mice were administered intravenously with the test compounds at an administration dose of 1 mg/kg and an administration volume of 5 mL/kg.
(§3) Blood was taken before administration and at 0 minute, 5 minutes, 15 minutes, 0.5 hour, 1.0 hour, 2.0 hours, 4.0 hours, 8.0 hours and 24.0 hours after administration. The blood samples were stored in EDTA-2K tubes, and centrifuged for 6 minutes at 6000 rpm, at 4° C. to separate the blood plasma. The plasma samples were stored at −80° C. The mice were fed four hours after administration.

Tolerance assay in mice = type: in vivo, Balb/c mice; details: 10 mg/kg QD oral
Protocol: as §1
The solution was subjected to ultrasound for 10 minutes to obtain a colorless and clear solution with a concentration of 1 mg/mL.
After an overnight fast, Balb/c mice (3 male and 3 female) were administrated orally with the test compound at an administration dose of 10 mg/kg and an administration volume of 10 mL/kg.
The mice were weighed daily before and after administration, and abnormal responses were observed. The mice were fed four hours after administration.

[3] = Pharmacokinetics assay in rats, single intravenous injection; type: in vivo; details: male SD rats
Protocol: SD rats were used as test animals.
as §2
After an overnight fast, male SD rats (3 rats per group) were administered intravenously with the test compounds at an administration dose of 1 mg/kg and an administration volume of 5 mL/kg.
as §3, with “0.2 mL of blood” for “Blood”, “taken from jugular vein” for “taken”, “rats” for “mice”

[4] = printed in the i.v. 1 mg/kg table
[5] = mouse, iv, i.v. 1 mg/kg, plasma

Question: Which results are given for Nc1nc(N2CCC3(CC2)Cc2ccccc2[C@H]3N)c(F)nc1Sc1ccnc(N)c1Cl [Example 179, (S)-1′-(6-amino-5-((2-amino-3-chloropyridin-4-yl)thio)-3-fluoropyrazin-2-yl)-1,3-dihydrospiro[indene-2,4′-piperidin]-1-amine]?
Answer: AUC(0-inf) ([1]; Colon): 9.18 µg·h/mL; Cmax ([1]; Colon): 1.31 µg/mL; MRT ([1]; Colon): 5.8 h; Tmax ([1]; Colon): 4 h; half-life ([1]; Colon): 2.8 h; AUC(0-inf) ([1]; Duodenum): 16.3 µg·h/mL; Cmax ([1]; Duodenum): 5.42 µg/mL; MRT ([1]; Duodenum): 4.8 h; Tmax ([1]; Duodenum): 1 h; half-life ([1]; Duodenum): 4.8 h; AUC(0-inf) ([1]; Ileum): 10 µg·h/mL; Cmax ([1]; Ileum): 1.93 µg/mL; MRT ([1]; Ileum): 6.1 h; Tmax ([1]; Ileum): 2 h; half-life ([1]; Ileum): 5.3 h; AUC(0-inf) ([1]; Plasma): 2.86 µg·h/mL; Cmax ([1]; Plasma): 0.386 µg/mL; MRT ([1]; Plasma): 7.5 h; Tmax ([1]; Plasma): 1 h; half-life ([1]; Plasma): 4.8 h; AUC(0-inf) ([1]; Tumor): 51.8 µg·h/mL; Cmax ([1]; Tumor): 2.39 µg/mL; MRT ([1]; Tumor): 19.1 h; Tmax ([1]; Tumor): 8 h; half-life ([1]; Tumor): 11.5 h; F [2, 4]: 71%; AUC(0-inf) [2, 5]: 0.736 µg·h/mL; C0 [2, 5]: 0.265 µg/mL; MRT [2, 5]: 9.04 h; clearance [2, 5]: 1.36 L/h/kg; half-life [2, 5]: 7.74 h; Vd ([2]; mouse, iv, i.v. 1 mg/kg, plasma, read-out: Vss): 12.3 L/kg; Body weight (Mean) Day 1 (Tolerance assay in mice; female mice): 22.07 g; Body weight (Mean) Day 16 (Tolerance assay in mice; female mice): 25.09 g; Body weight changes ΔW/W1 (Mean) Day 16 (Tolerance assay in mice; female mice): 13.80%; Body weight (Mean) Day 1 (Tolerance assay in mice; male mice): 23.01 g; Body weight (Mean) Day 16 (Tolerance assay in mice; male mice): 28.30 g; Body weight changes ΔW/W1 (Mean) Day 16 (Tolerance assay in mice; male mice): 23.25%; F [3, 4]: 118%; AUC(0-inf) ([3]; rat, iv, i.v. 1 mg/kg, plasma): 0.613 µg·h/mL; C0 ([3]; rat, iv, i.v. 1 mg/kg, plasma): 0.311 µg/mL; MRT ([3]; rat, iv, i.v. 1 mg/kg, plasma): 4.26 h; clearance ([3]; rat, iv, i.v. 1 mg/kg, plasma): 1.63 L/h/kg; half-life ([3]; rat, iv, i.v. 1 mg/kg, plasma): 3.35 h; Vd ([3]; rat, iv, i.v. 1 mg/kg, plasma, read-out: Vss): 7 L/kg
